In ChEMBL document CHEMBL1146616, “Synthesis and structure-activity relationships of open D-Ring galanthamine analogues” (Bioorg Med Chem Lett, 2003):
pIC50: −log10 of the molar value.

Assays:
Cholinesterase [1] = target: T1, Cholinesterase (Homo sapiens, UniProt P06276)
Description: In vitro inhibitory activity against Butyrylcholinesterase (BChE) in human serum

Acetylcholinesterase = Acetylcholinesterase (Electrophorus electricus, UniProt O42275)
Description: In vitro inhibitory activity against acetylcholinesterase (AChE) in Electrophorus electricus

Cholinesterase [2] = target: T1, Cholinesterase; experiment: Ratio of inhibitory activity against butyrylcholinesterase (BChE) to that of acetylcholinesterase (AChE)

T1 sequence (P06276 whole entry): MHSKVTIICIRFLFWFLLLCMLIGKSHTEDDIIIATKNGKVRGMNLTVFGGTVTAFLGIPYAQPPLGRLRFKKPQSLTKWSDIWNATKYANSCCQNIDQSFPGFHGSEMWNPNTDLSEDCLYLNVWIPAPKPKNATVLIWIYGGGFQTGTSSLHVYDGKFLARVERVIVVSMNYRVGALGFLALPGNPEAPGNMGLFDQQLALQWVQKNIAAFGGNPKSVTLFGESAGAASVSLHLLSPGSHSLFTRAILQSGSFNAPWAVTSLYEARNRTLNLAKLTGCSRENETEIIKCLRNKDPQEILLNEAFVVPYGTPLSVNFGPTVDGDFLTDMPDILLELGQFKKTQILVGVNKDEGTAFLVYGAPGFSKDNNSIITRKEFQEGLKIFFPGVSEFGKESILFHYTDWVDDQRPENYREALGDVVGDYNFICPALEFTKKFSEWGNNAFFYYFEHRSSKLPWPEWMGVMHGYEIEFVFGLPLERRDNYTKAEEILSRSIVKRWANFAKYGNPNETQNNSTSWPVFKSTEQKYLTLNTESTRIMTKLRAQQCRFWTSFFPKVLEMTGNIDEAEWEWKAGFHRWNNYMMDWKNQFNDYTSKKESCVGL
Sequence of Acetylcholinesterase (O42275 whole entry): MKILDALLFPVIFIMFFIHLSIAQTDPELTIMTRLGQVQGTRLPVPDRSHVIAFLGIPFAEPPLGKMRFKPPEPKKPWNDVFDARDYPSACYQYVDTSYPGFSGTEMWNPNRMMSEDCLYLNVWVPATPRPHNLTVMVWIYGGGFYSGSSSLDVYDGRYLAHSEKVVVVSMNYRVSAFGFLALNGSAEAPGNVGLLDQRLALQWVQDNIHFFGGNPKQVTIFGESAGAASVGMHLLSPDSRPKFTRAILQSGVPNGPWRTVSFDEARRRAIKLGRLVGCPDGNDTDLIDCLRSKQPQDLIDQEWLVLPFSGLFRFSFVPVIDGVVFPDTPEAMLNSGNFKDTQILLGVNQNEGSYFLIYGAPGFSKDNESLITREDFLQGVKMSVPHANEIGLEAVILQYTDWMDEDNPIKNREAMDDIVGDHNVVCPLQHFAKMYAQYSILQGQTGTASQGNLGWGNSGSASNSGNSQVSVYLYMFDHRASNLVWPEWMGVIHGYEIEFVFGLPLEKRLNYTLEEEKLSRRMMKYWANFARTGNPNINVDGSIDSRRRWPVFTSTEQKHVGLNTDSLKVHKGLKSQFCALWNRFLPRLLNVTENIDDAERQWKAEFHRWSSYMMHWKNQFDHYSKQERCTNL

Q: How did the pIC50 (Cholinesterase [1]) turn out when `COc1ccc2c3c1O[C@H]1C[C@@H](O)C=C[C@@]31CCN(C)OC2` was run?
A: 3.02

Q: What about the pIC50 (Acetylcholinesterase) of the same molecule?
A: 2.00

Q: Which results are given for `CCOC(=O)N1CC[C@@]23C=C[C@H](O)C[C@@H]2Oc2c(OC)ccc(c23)C1`?
A: pIC50 (Cholinesterase [1]): 3.52; pIC50 (Acetylcholinesterase): 4.17; Selectivity (Cholinesterase [2]): 4.5

Q: How did the pIC50 (Cholinesterase [1]) turn out when `CCOC(=O)N(C)CC[C@@]12C=C[C@H](O)C[C@@H]1Oc1c(OC)ccc(C=O)c12` was run?
A: 3.81

Q: What about the pIC50 (Acetylcholinesterase) of the same molecule?
A: 3.00

Q: What does the source list for `CCOC(=O)N(C)CC[C@@]12C=C[C@H](O)C[C@@H]1Oc1c(OC)ccc(CO)c12`?
A: pIC50 (Cholinesterase [1]): 3.67; pIC50 (Acetylcholinesterase): 3.24

Q: With `CCOC(=O)O[C@H]1C=C[C@@]2(CCN(C)C(=O)OCC)c3c(CCl)ccc(OC)c3O[C@H]2C1` as the molecule, how does the pIC50 (Cholinesterase [1]) read?
A: 3.10

Q: And the pIC50 (Acetylcholinesterase)?
A: 3.19

Q: What about the Selectivity (Cholinesterase [2]) of the same molecule?
A: 1.2
